These results are taken from patent US12691069B2, “Synthetic glycolipids and glycoliposome compositions : suitable for cargo delivery to the central nervous system” (KORANEX CAPITAL, priority 2022, dated 2026).

Data set [1] in a line: Dynamic light scattering (DLS) of MGs. The class given is physicochemical. The conditions noted are these: At 3.2 mg/mL THF; for Diameter (nm): injected in nanopure water. The protocol:
The self-assembly of the glycoliposomes into vesicles and liposomes involved the injection method of their solution in a water miscible solvent such as ethanol or tetrahydrofuran (THF) into water or buffer. […] The resulting assemblies were first analyzed by dynamic light scattering (DLS) for size, polydispersity (PDI), and stability in time. For liposome size determination, solutions of the glycolipids (3.5 mg) in THF (1.1 mL) were then diluted in distilled water (2.2 mL) to provide final concentrations of 1.06 mg/mL. Particle size distributions were measured in water using a Zetasizer® Nano S90 from Malvern Instruments (UK) equipped with 4 mW He—Ne laser 633 nm and avalanche photodiode positioned at 90° to the beam and temperature-controlled cuvette holder. Instrument parameters were determined automatically along with measurement times. Experiments were performed in triplicate at 25° C.
Different solutions of 12a (C8), 12c (C12), 12d (C14), 12e (C16), 22c (C12), 22d (C14), 22e (C16) in THF and EtOH were prepared from 0.5 mg/mL to 10 mg/mL. 100 μL of these preparations were injected in a constant 2 mL of nanopure water followed by 5 seconds of vortexing, and analyzed by DLS, to determine the diameter size of the MGs, as shown in Table 2.

Data set [2] in a line: In vivo Dynantin distribution after intranasal treatment. The note with it: intranasal Dynantin 2 μg, 20 minutes.
The next data set has as its system HeLa cells. Description: Nile Red cellular uptake, HeLa. The class given is cell-based, human. The protocol: Murine dendritic cells JAWSII (ATCC® CRL-11904™) were grown in RPMI-1640 medium (HyClone, Logan UT) supplemented with 8% FBS (Gibco, Grand Island NY), 100 units/ml penicillin/streptomycin (HyClone, Logan UT) and 5 ng/mL of GM-CSF (Invitrogen, Frederick MD) at 37° C. and 5% CO2. Once confluent, cells were collected using 0.25% Trypsin-EDTA (Gibco, Grand Island NY). Murine macrophage cells J774A.1 (ATCC® TIB-67™) and human malignant cells HeLa (ATCC® CCL-2™; Cederlane, Burlington, ON, Canada) were grown […] (DMEM) high glucose (HyClone, Logan, UT) supplemented with 10% FBS and 100 units/ml penicillin/streptomycin at 37° C. and 5% CO2. Once confluent, cells were collected using a cell scraper. Viability was assessed prior to experiments by Trypan Blue (Gibco, Grand Island NY) exclusion where the viability was >90%. Cells were seeded at 3×10^5 cells in 300 μL in a 96 multi-well plate and left untreated or were treated with 10 μg/mL of empty liposomes MG12d or MGC12, 1 μg/mL of Nile Red (Sigma, St-Louis MO), or 1 μg/mL of Nile Red encapsulated in 10 μg/mL of MG12d or MGC12. […] Mean fluorescence intensity was analysed using the Cytomics FC-500 flow cytometer (Beckman Coulter, Fullerton CA) using the FL3 channel where […] were measured. Data was analyzed using the CXP Analysis Software. […]

Marks after values point to notes of the source that are not given here.

Regarding “6-bis(tetradecyloxy)benzamido-N-hexyl α-D-mannopyranoside [12d]”, in data set [1], the “Polydispersity Index (PDI)” value is reported as 0.040 and the “Diameter (nm)” value is given as 286 ^a nm.
Regarding `CC[C@H](C)[C@H](NC(=O)[C@H](CCCN=C(N)N)NC(=O)[C@H](CCCN=C(N)N)NC(=O)[C@H](CC(C)C)NC(=O)[C@H](Cc1ccccc1)NC(=O)CNC(=O)CNC(=O)[C@@H](C)Cc1c(C)cc(O)cc1C)C(=O)N[C@@H](CCCN=C(N)N)C(=O)N1CCC[C@H]1C(=O)N[C@@H](CCCCN)C(N)=O` [Dynantin], in data set [2] (brain), the “Brain (%), percentage of total dose recovered” value is 8.15 ± 3.06% and the “Dynantin levels in the brain” value is “detectable levels”. In data set [2] (lung), the “Lung (%), percentage of total dose recovered” value amounted to 4.93 ± 0.89%. Besides, in data set [2] (sera), the “Sera (%), percentage of total dose recovered” value was found to be 21.66 ± 3.99%.
With `CCCCCCCCOc1ccc(C(=O)NCCCCCCO[C@H]2O[C@H](CO)[C@@H](O)[C@H](O)[C@@H]2O)cc1OCCCCCCCC` [12a, 6-Bis(octacyloxy)benzamido-N-hexyl α-D-mannopyranoside], in data set [1], the “Polydispersity Index (PDI)” value turned out to be 0.178 and the “Diameter (nm)” value is 300^a nm.
In the same order, the values of `CCCCCCCCCCCCOc1ccc(C(=O)NCCCCCCO[C@H]2O[C@H](CO)[C@@H](O)[C@H](O)[C@@H]2O)cc1OCCCCCCCCCCCC` [12c, 6-Bis(dodecyloxy)benzamido-N-hexyl α-D-mannopyranoside] are 0.202 and 267 ^a nm.
As to `CCN(CC)c1ccc2nc3c4ccccc4c(=O)cc-3oc2c1` [Nile Red], the “Nile Red uptake / staining” value in the data set with HeLa cells is “no staining”.
